# In PMC12686126, “LL‐37 Inhibits TMPRSS2‐Mediated S2' Site Cleavage and SARS‐CoV‐2 Infection but Not Omicron Variants” (Cell Proliferation, 2025):
# Experiments:
# [1] = test system: spike with N764K mutation; format: cell-based, SARS‐CoV‐2
# [2] = test system: S2 subunit with N969K mutation; format: binding, SARS‐CoV‐2
# [3] = test system: SARS‐CoV‐2 spike S2 subunit; format: cell-based
# [4] = test system: spike with N764K mutation; format: cell-based, SARS‐CoV‐2; remark: listed apart in the source
# [5] = test system: spike with N969K mutation; format: cell-based, SARS‐CoV‐2
# [6] = test system: S2 subunit with D796Y mutation; format: binding, SARS‐CoV‐2
# SARS‐CoV‐2 spike = format: cell-based
# [7] = test system: SARS‐CoV‐2 spike pseudovirus; format: cell-based
# [8] = test system: spike with D796Y mutation; format: cell-based, SARS‐CoV‐2
# [9] = test system: SARS‐CoV‐2^N764K spike pseudovirus; format: cell-based
sequence,measurement,setting,value
LLGDFFRKSKEKIGKEFKRIVQRIKDFLRNLVPRTES [LL‐37],cell–cell fusion activity after LL‐37 pretreatment,[1],not the spike‐expressing cells with N764K mutation
same,binding of S2 subunit to immobilised LL‐37,[2],no difference or even enhanced binding
same,effect on polybasic cleavage site (S1/S2 boundary),[3],excluded the effect of LL‐37 on the polybasic cleavage site
same,generation of S2' fragment,[4],did not significantly reduce
same,cell–cell fusion activity after LL‐37 pretreatment,[5],significantly lower cell–cell fusion activity
same,binding of S2 subunit to immobilised LL‐37,[6],no difference or even enhanced binding
same,cell–cell fusion activity after LL‐37 pretreatment,SARS‐CoV‐2 spike,significantly lower cell–cell fusion activity
same,inhibition of RLU only caused by overexpression of TMPRSS2,[7],about 70%
same,inhibition of pseudovirus entry into 293T‐A2T2 cells,[7],52%
same,cell–cell fusion activity after LL‐37 pretreatment,[8],significantly lower cell–cell fusion activity
same,reduction of RLU induced by SARS‐CoV‐2^N764K,[9],did not significantly reduce
